In PubChem BioAssay (NCI):
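GI50 = concentration required for 50% inhibition of growth. Definition used: TGI = concentration required for complete inhibition of growth.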

Assays:
Test in all cases: inhibition of tumour cell growth, NCI panel, 384-well format
[1] = system: IGROV1 ovarian
[2] = system: U251 glioblastoma
[3] = system: OVCAR-8 ovarian
[4] = system: OVCAR-3 ovarian
[5] = system: MCF7 breast
[6] = system: K-562 leukemia
[7] = system: RXF 393 renal
[8] = system: SF-268 CNS
[9] = system: KM12 colon
[10] = system: LOX IMVI melanoma
[11] = system: SNB-75 CNS
[12] = system: NCI-H522 lung
[13] = system: NCI-H23 lung
[14] = system: HS 578T breast
[15] = system: A498 renal
[16] = system: SF-295 CNS
[17] = system: MALME-3M melanoma
[18] = system: NCI/ADR-RES ovarian
[19] = system: MOLT-4 leukemia
[20] = system: HOP-62 NSCLC
[21] = system: ACHN renal
[22] = system: HT29 colon
[23] = system: TK-10 renal
[24] = system: PC-3 prostate
[25] = system: UO-31 renal
[26] = system: SNB-19 CNS
[27] = system: SK-OV-3 ovarian
[28] = system: SK-MEL-5 melanoma
[29] = system: HL-60(TB) leukemia
[30] = system: MDA-MB-468 breast
[31] = system: 786-0 renal
[32] = system: OVCAR-4 ovarian
[33] = system: UACC-62 melanoma
[34] = system: A549 NSCLC
[35] = system: MDA-MB-231 breast
[36] = system: T-47D breast
[37] = system: SK-MEL-28 melanoma
[38] = system: CAKI-1 renal
[39] = system: HCC-2998 colon
[40] = system: NCI-H226 lung
[41] = system: SR leukemia
[42] = system: CCRF-CEM leukemia
[43] = system: DU-145 prostate
[44] = system: HCT-15 colon
[45] = system: UACC-257 melanoma
[46] = system: COLO 205 colon
[47] = system: NCI-H460 NSCLC
[48] = system: EKVX NSCLC
[49] = system: MDA-MB-435 melanoma
[50] = system: OVCAR-5 ovarian
[51] = system: SW-620 colon
[52] = system: HOP-92 NSCLC
[53] = system: SF-539 CNS
[54] = system: M14 melanoma
[55] = system: BT-549 breast
[56] = system: SN12C renal
[57] = system: NCI-H322M lung
[58] = system: RPMI-8226 leukemia

COCCOC(=O)C1=C(C)NC2=C(C(=O)CC(c3ccccc3OC)C2)C1c1cccc(O)c1 (centres undefined)
GI50 [1]: 8.28 µM
TGI [1]: 24.7 µM
GI50 [2]: 17.2 µM
TGI [2]: 44 µM
GI50 [3]: 6.94 µM
TGI [3]: 21.6 µM
GI50 [4]: 5.05 µM
TGI [4]: 17.6 µM
GI50 [5]: 2.68 µM
TGI [5]: 20.7 µM
GI50 [6]: 5.62 µM
TGI [6]: 19.6 µM
GI50 [7]: 16.2 µM
TGI [7]: 34.9 µM
GI50 [8]: 15.5 µM
TGI [8]: 37 µM
GI50 [9]: 9.21 µM
TGI [9]: 26.2 µM
GI50 [10]: 3.75 µM
TGI [10]: 13.6 µM
GI50 [11]: 9.16 µM
TGI [11]: 98.6 µM
GI50 [12]: 2.39 µM
TGI [12]: 13.7 µM
GI50 [13]: 8.58 µM
TGI [13]: 25.8 µM
GI50 [14]: 1.93 µM
TGI [14]: 8.82 µM
GI50 [15]: 10.6 µM
TGI [15]: 29.6 µM
GI50 [16]: 16.2 µM
TGI [16]: 37.5 µM
GI50 [17]: 4.14 µM
TGI [17]: 23.2 µM
GI50 [18]: 46.3 µM
TGI [18]: > 100 µM
GI50 [19]: 7.21 µM
TGI [19]: 20.7 µM
GI50 [20]: 5.19 µM
TGI [20]: 22.1 µM
GI50 [21]: 17.3 µM
TGI [21]: 55.6 µM
GI50 [22]: 6.75 µM
TGI [22]: 22.2 µM
GI50 [23]: 8.47 µM
TGI [23]: 28.1 µM
GI50 [24]: 15.6 µM
TGI [24]: 53.6 µM
GI50 [25]: 34.6 µM
TGI [25]: > 100 µM
GI50 [26]: 11.4 µM
TGI [26]: 38 µM
GI50 [27]: 3.74 µM
TGI [27]: 20.4 µM
GI50 [28]: 4.43 µM
TGI [28]: 18.1 µM
GI50 [29]: 1.27 µM
TGI [29]: 3.17 µM
GI50 [30]: 2.5 µM
TGI [30]: 7.67 µM
GI50 [31]: 5.49 µM
TGI [31]: 24.2 µM
GI50 [32]: 2.14 µM
TGI [32]: 8.76 µM
GI50 [33]: 2.38 µM
TGI [33]: 16.6 µM
GI50 [34]: 6.88 µM
TGI [34]: 31 µM
GI50 [35]: 4.79 µM
TGI [35]: 60.4 µM
GI50 [36]: 8.93 µM
TGI [36]: 66.7 µM
GI50 [37]: 11 µM
TGI [37]: 31 µM
GI50 [38]: 4.44 µM
TGI [38]: 27.9 µM
GI50 [39]: 3.67 µM
TGI [39]: 15.2 µM
GI50 [40]: 4.91 µM
TGI [40]: 27.6 µM
GI50 [41]: 0.761 µM
TGI [41]: 11.5 µM
GI50 [42]: 5.99 µM
TGI [42]: 19.4 µM
GI50 [43]: 18.5 µM
TGI [43]: 65 µM
GI50 [44]: 11.6 µM
TGI [44]: 27 µM
GI50 [45]: 5.14 µM
TGI [45]: 22.8 µM
GI50 [46]: 7.74 µM
TGI [46]: 24.6 µM
GI50 [47]: 14.7 µM
TGI [47]: 30.8 µM
GI50 [48]: 17.6 µM
TGI [48]: 62.2 µM
GI50 [49]: 9.55 µM
TGI [49]: 24.8 µM
GI50 [50]: 12 µM
TGI [50]: 43.1 µM
GI50 [51]: 13 µM
TGI [51]: 27 µM
GI50 [52]: 4.02 µM
TGI [52]: 21 µM
GI50 [53]: 11.2 µM
TGI [53]: 27.3 µM
GI50 [54]: 11 µM
TGI [54]: 34.9 µM
GI50 [55]: 2.55 µM
TGI [55]: 14.9 µM
GI50 [56]: 15.6 µM
TGI [56]: 41.2 µM
GI50 [57]: 12.7 µM
TGI [57]: > 100 µM
GI50 [58]: 1.08 µM
TGI [58]: 4.87 µM

CCC[C@H](N[C@@H]1CCc2cc(F)cc(F)c2C1)C(=O)Nc1cn(C(C)(C)CNCC(C)(C)C)cn1
GI50 [1]: 17.3 µM
TGI [1]: 44.6 µM
GI50 [2]: 15.5 µM
TGI [2]: 29.3 µM
GI50 [3]: 16.1 µM
TGI [3]: 36.5 µM
GI50 [5]: 5.11 µM
TGI [5]: 19.8 µM
GI50 [6]: 10.6 µM
TGI [6]: 22.8 µM
GI50 [7]: 10.7 µM
TGI [7]: 24.1 µM
GI50 [8]: 15.3 µM
TGI [8]: 31.3 µM
GI50 [9]: 14.6 µM
TGI [9]: 29.8 µM
GI50 [10]: 17.8 µM
TGI [10]: 31.9 µM
GI50 [11]: 15.8 µM
TGI [11]: 42.8 µM
GI50 [12]: 13.2 µM
TGI [12]: 28.8 µM
GI50 [13]: 11.9 µM
TGI [13]: 26 µM
GI50 [14]: 12.3 µM
TGI [14]: 25.1 µM
GI50 [15]: 10.5 µM
TGI [15]: 22.8 µM
GI50 [16]: 13.8 µM
TGI [16]: 26.9 µM
GI50 [17]: 2.14 µM
TGI [17]: 12.2 µM
GI50 [18]: 10.9 µM
TGI [18]: 24.3 µM
GI50 [19]: 4.04 µM
TGI [19]: 15.2 µM
GI50 [20]: 15.6 µM
TGI [20]: 30.1 µM
GI50 [21]: 15.4 µM
TGI [21]: 35.2 µM
GI50 [22]: 11 µM
TGI [22]: 23.7 µM
GI50 [23]: 16 µM
TGI [23]: 46 µM
GI50 [24]: 7.53 µM
TGI [24]: 21.4 µM
GI50 [25]: 14.6 µM
TGI [25]: 28.5 µM
GI50 [26]: 16.8 µM
TGI [26]: 39.7 µM
GI50 [27]: 14.2 µM
TGI [27]: 29.5 µM
GI50 [28]: 11.2 µM
TGI [28]: 23.4 µM
GI50 [29]: 2.77 µM
TGI [29]: 14.5 µM
TGI [30]: 1.75 µM
GI50 [31]: 13.4 µM
TGI [31]: 26.5 µM
GI50 [32]: 1.09 µM
TGI [32]: 35.9 µM
GI50 [33]: 15.7 µM
TGI [33]: 29.3 µM
GI50 [34]: 13.9 µM
TGI [34]: 46.8 µM
GI50 [35]: 12.3 µM
TGI [35]: 27.1 µM
GI50 [36]: 2.11 µM
TGI [36]: 17 µM
GI50 [37]: 12.7 µM
TGI [37]: 25.9 µM
GI50 [38]: 14.4 µM
TGI [38]: 29.5 µM
GI50 [39]: 6.98 µM
TGI [39]: 19.9 µM
GI50 [40]: 13.8 µM
TGI [40]: 28.3 µM
GI50 [41]: 4.2 µM
TGI [41]: 16.2 µM
GI50 [42]: 7.5 µM
TGI [42]: 21 µM
GI50 [43]: 17.2 µM
TGI [43]: 48.8 µM
GI50 [44]: 8.15 µM
TGI [44]: 21.3 µM
GI50 [45]: 0.535 µM
TGI [45]: 18.4 µM
GI50 [46]: 13.1 µM
TGI [46]: 36.1 µM
GI50 [47]: 14.9 µM
TGI [47]: 28.9 µM
GI50 [48]: 14.5 µM
TGI [48]: 44.7 µM
GI50 [49]: 16.6 µM
TGI [49]: 35.1 µM
GI50 [50]: 19.7 µM
TGI [50]: 49.4 µM
GI50 [51]: 16.2 µM
TGI [51]: 32.2 µM
GI50 [52]: 11.7 µM
TGI [52]: 24.1 µM
GI50 [53]: 16.5 µM
TGI [53]: 30.3 µM
GI50 [54]: 13.8 µM
TGI [54]: 27 µM
GI50 [55]: 9.95 µM
TGI [55]: 22.1 µM
GI50 [56]: 19.4 µM
TGI [56]: 42.9 µM
GI50 [57]: 20.8 µM
TGI [57]: 55.4 µM
GI50 [58]: 0.358 µM
TGI [58]: 11.2 µM
